Patent publication US8557796B2, “Substituted 1-oxa-2,8-diaza-spiro [4,5] dec-2-ene derivatives and related treatment methods” (Gruenenthal GmbH, priority 2001, dated 2013)

System: batrachotoxin (BTX) binding site (binding site 2) of the sodium channel
Assay: Bond test on the sodium channel, binding site 2 (BTX bond), [3H]-batrachotoxinin A20 α-benzoate displacement
Details: rat cerebrocortex synaptosomes

Row | SMILES | BTX bond, 10 μM, % inhibition
1 | CCOC(=O)N1CCC(NC(=O)C2=NOC3(CCN(C(=O)C4CC4c4ccccc4)CC3)C2)CC1 (stereo not shown) [Example 55, 4-{[8-(2-phenyl-cyclopropanecarbonyl)-1-oxa-2,8-diaza-spiro[4,5]dec-2-ene-3-carbonyl]-amino}-piperidine-1-carboxylic acid ethyl ester] | 47%
2 | Cc1ccc(S(=O)(=O)N2CCC3(CC2)CC(C(=O)NCCN(C)C)=NO3)cc1 [Example 57, 8-(toluene-4-sulphonyl)-1-oxa-2,8-diaza-spiro[4,5]dec-2-ene-3-carboxylic acid (2-dimethylamino-ethyl)-amide] | 45%
3 | CN1CCCC1CCNC(=O)C1=NOC2(CCN(S(=O)(=O)c3ccc(Cl)s3)CC2)C1 (stereo not shown) [Example 61, 8-(5-chloro-thiophene-2-sulphonyl)-1-oxa-2,8-diaza-spiro[4,5]dec-2-ene-3-carboxylic acid [2-(1-methyl-pyrrolidin-2-yl)-ethyl]-amide] | 79%
4 | CCOC(=O)N1CCC(NC(=O)C2=NOC3(CCN(C(=O)c4ccc(Br)cc4)CC3)C2)CC1 [Example 62, 4-{[8-(4-bromo-benzoyl)-1-oxa-2,8-diaza-spiro[4,5]dec-2-ene-3-carbonyl]-amino)-piperidine-l-carboxylic acid ethyl ester] | 49%
5 | Cc1ccc(S(=O)(=O)N2CCC3(CC2)CC(C(=O)NCc2cc(Cl)cc(Cl)c2)=NO3)cc1 [Example 63, 8-(toluene-4-sulphonyl)-1-oxa-2,8-diaza-spiro[4,5]dec-2-ene-3-carboxylic acid 3,5-dichlorobenzylamide] | 38%
6 | COc1cccc(CN2CCC(NC(=O)C3=NOC4(CCN(S(=O)(=O)c5cc(Cl)ccc5Cl)CC4)C3)C2)c1 (stereo not shown) [Example 64] | 91%
7 | CN(C)S(=O)(=O)N1CCC2(CC1)CC(C(=O)N1CCN(Cc3ccc4ccccc4c3)CC1)=NO2 [Example 65, 3-(4-naphthalen-2-ylmethyl-piperazine-1-carbonyl)-1-oxa-2,8-diaza-spiro[4,5]dec-2-ene-8-sulphonic acid dimethylamide] | 67%
8 | O=C(C1=NOC2(CCN(S(=O)(=O)Cc3ccccc3)CC2)C1)N1CCN(CCCc2ccccc2)CC1 [Example 69] | 50%
9 | COc1cc(OC)cc(N2CCN(C(=O)C3=NOC4(CCN(S(=O)(=O)c5ccc(Cl)s5)CC4)C3)CC2)c1 [Example 71, [8-(5-chloro-thiophene-2-sulphonyl)-1-oxa-2,8-diaza-spiro[4,5]dec-2-en-3-yl]-[4-(3,5-dimethoxy-phenyl)-piperazin-l-yl]-methanone] | 54%
10 | CCCC(=O)N1CCC2(CC1)CC(C(=O)NC1CCN(C(=O)OCC)CC1)=NO2 [Example 74, 4-[(8-butyryl-1-oxa-2,8-diaza-spiro[4,5]dec-2-ene-3-carbonyl)-amino]-piperidine-l-carboxylic acid ethyl ester] | 47%
11 | O=C(NCC(c1ccccc1)c1ccccc1)C1=NOC2(CCN(S(=O)(=O)c3ccc(Cl)s3)CC2)C1 [Example 79, 8-(5-chloro-thiophene-2-sulphonyl)-1-oxa-2,8-diaza-spiro[4,5]dec-2-ene-3-carboxylic acid (2,2-diphenyl-ethyl)-amide] | 83%

Same assay, conditions: rat cerebrocortex synaptosomes, 10 µM

Row | SMILES | BTX bond, 10 μM, % inhibition
12 | Cc1ccc(S(=O)(=O)N2CCC3(CC2)CC(C(=O)NC2CCCC2OCc2ccccc2)=NO3)cc1 (stereo not shown) [Example 67, 8-(toluene-4-sulphonyl)-1-oxa-2,8-diaza-spiro[4,5]dec-2-ene-3-carboxylic acid (2-benzyloxy-cyclopentyl)-amide] | 80%
13 | Cc1ccc(S(=O)(=O)N2CCC3(CC2)CC(C(=O)NC2CCCC2OCc2ccccc2)=NO3)cc1 (stereo not shown) [Example 73, 8-(toluene-4-sulphonyl)-1-oxa-2,8-diaza-spiro[4,5]dec-2-ene-3-carboxylic acid (2-benzyloxy-cyclopentyl)-amide] | 75%
